One data set deals with HIV (HTLV-IIIB strain). Description: HIV Replication Inhibition Assay. Particulars: Human immunodeficiency virus 1, MT4, 96 h, MT-4 cells, cultured four days, MTT, concentration at which cell cytotoxicity by virus is inhibited 50%. The data set is classed as cell-based. Here is the method: HIV (HTLV-IIIB strain) persistent infected human T cell strain Molt-4 clone 8 was cultured in 10% Fetal Bovine Serum-containing RPMI-1640 medium and the supernatant was filtered, then the virus titer was measured and the solution was stored at −80° C. Each anti-human immunodeficiency virus active substance was diluted with the above cultured medium to the designated concentration, which was dispensed into 96 well micro plate by 50 μL. Next, a MT-4 cell suspended liquid was dispensed by 100 μL (2.5×10^4 cells), then the above HIV-containing supernatant diluted with the above cultured medium was added thereto by 50 μl (60 pfu (plaque forming unit)).
The obtained mixture was cultured at 37° C. in CO2 incubator for four days, then 3-(4,5-dimethylthiazole-2-yl)-2,5-diphenyltetrazolynium bromide (MTT) 5 mg/mL in PBS was added to each well by 30 μL, followed by 1 hr-cultivation. In this step, as formazan was precipitated by reduction of MTT in living cells, the cell supernatant was removed from all was by 150 μL, then a 150 μL of solution (10% Triton X-100 and 0.4% (v/v)-HCl containing isopropanol) was added thereto, followed by shaking with a plate mixer, to elute formazan. The formazan was measured with a microreader at OD: 560 nm and 690 nm (reference wavelength) and the result was compared with the reference. EC50 means the compound concentration at which cell cytotoxicity by virus is inhibited 50%.

A short description of a further data set: BA Test. Particulars: plasma; oral vs intravenous administration, from AUCs, mouse or SD rats. The data set is classed as in vivo. Here is the method: Materials and methods for studies an oral absorption (1) Animal: mouse or SD rats are used. (2) Breeding conditions: mouse or SD rats were allowed to freely take solid feed and sterilized tap water. (3) Dose and grouping: orally or intravenously administered at a predetermined dose; grouping is as follows (Dose depends on the compound) Oral administration: 1 to 30 mg/kg (n=2 to 3) Intravenous administration: 0.5 to 10 mg/kg (n=2 to 3) (4) Preparation of dosing solution: for oral administration, in a solution or a suspension state; for intravenous administration, in a solubilized state. (5) Administration method: in oral administration, forcedly administer into ventriculus with oralprobe; in intravenous administration, administer from caudal vein with a needle-equipped syringe. (6) Evaluation items: blood is collected over time, and the plasma concentration of drug is measured by LC/MS/MS. (7) Statistical analysis: regarding the transition of the plasma concentration, the area under the plasma concentration-time curve (AUC) is calculated by non-linear least squares program WinNonlin (Registered trademark), and the bioavailability (BA) is calculated from the AUCs of the oral administration group and intravenous administration group. (Result) Compound No. I-30: 45.2%

Data set [1] concerns the target T1, human ether-a-go-go related gene (hERG) channel (Homo sapiens, UniProt Q12809).
T1 construct: expressed in transfected cells; host or cells: HEK293
Description: hERG Test. In kind it is cell-based. Particulars: compound concentration 5 μmol/L, HEK293 cells expressing hERG, patch clamp. An excerpt:
For the purpose of assessing risk of an electrocardiogram QT interval prolongation, effects on delayed rectifier K+ current (IKr), which plays an important role in the ventricular repolarization process of the compound of the present invention, was studied using HEK293 cells expressing human ether-a-go-go related gene (hERG) channel.
After a cell was retained at a membrane potential of −80 mV by whole cell patch clamp method using an automated patch clamp system (PatchXpress 7000A, Axon Instruments Inc.), IKr induced by depolarization pulse stimulation at +40 mV for 2 seconds and, further, repolarization pulse stimulation at −50 mV for 2 seconds was recorded. […] From the recording IKr, an absolute value of the tail peak current was measured based on the current value at the resting membrane potential using an analysis software (DataXpress ver. 1, Molecular Devices Corporation). Further, the inhibition relative to the tail peak current before application of the test substance was calculated, and compared with the vehicle-applied group (0.1% dimethyl sulfoxide solution) to access influence of the test substance on IKr. […]

A further data set is described as follows: Solubility Test. The data set is classed as physicochemical. Particulars: fassgf or other biorelevant, kinetic from dmso stock; 1% DMSO addition, artificial intestinal juice pH 6.8, 16 hours at 25° C. Here is the method: The solubility of the compound of the present invention was determined under 1% DMSO addition conditions. A 10 mmol/L solution of the compound was prepared with DMSO, and 6 μL of the solution was added to 594 μL of an artificial intestinal juice (: water and a 118 mL solution of 0.2 mol/L NaOH reagent are added to 250 mL of 0.2 mol/L potassium dihydrogen phosphate reagent to reach 1000 mL) with a pH of 6.8. The mixture was left standing for 16 hours at 25° C., and the mixture was vacuum-filtered. The filtrate was two-fold diluted with methanol/water=1/1(v/v), and the compound concentration in the filtrate was measured with HPLC or LC/MS/MS by the absolute calibration method.

T1 sequence (Q12809 whole entry): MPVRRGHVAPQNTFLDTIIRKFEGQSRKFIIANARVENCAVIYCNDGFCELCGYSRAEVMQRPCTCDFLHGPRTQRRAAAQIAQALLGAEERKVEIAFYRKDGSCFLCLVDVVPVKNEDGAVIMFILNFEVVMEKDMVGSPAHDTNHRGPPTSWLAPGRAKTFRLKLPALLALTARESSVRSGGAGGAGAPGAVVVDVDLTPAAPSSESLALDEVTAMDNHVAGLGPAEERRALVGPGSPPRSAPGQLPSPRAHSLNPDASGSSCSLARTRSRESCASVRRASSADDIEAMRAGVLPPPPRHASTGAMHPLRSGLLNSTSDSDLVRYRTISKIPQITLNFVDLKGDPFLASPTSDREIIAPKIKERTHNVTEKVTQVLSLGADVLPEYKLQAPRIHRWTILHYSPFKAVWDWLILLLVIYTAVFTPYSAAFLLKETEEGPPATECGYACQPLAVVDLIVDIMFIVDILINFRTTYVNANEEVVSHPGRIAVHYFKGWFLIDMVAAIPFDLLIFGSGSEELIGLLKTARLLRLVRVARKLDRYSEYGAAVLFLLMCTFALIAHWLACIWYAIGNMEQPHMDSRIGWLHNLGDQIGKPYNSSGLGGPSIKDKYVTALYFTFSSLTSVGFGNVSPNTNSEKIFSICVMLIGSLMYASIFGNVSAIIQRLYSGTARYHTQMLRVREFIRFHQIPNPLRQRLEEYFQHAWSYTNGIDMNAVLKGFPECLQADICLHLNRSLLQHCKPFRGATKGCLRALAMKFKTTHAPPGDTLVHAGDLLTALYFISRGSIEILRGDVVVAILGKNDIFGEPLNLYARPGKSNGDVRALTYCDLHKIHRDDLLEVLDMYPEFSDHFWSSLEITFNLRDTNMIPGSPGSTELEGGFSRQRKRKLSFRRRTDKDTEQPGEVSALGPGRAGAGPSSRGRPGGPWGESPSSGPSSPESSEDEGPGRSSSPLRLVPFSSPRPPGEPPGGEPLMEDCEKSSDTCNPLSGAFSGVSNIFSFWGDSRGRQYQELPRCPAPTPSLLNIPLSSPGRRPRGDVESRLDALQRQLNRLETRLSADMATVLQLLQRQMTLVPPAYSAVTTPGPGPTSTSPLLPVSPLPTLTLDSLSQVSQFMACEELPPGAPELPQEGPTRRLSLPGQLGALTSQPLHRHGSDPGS

Regarding `CC(=O)N1CCn2c(-c3ccnc(-c4ccc5c(cnn5C)c4)c3)cc3c(-c4ccc5c(c4C)NCCO5)c([C@H](OC(C)(C)C)C(=O)O)c(C)c1c32` [Compound I-027], the EC50 (commonly the midpoint of the concentration-response curve) in the data set with HIV (HTLV-IIIB strain) is 1.7 nM.

For `Cc1c(-c2c([C@H](OC(C)(C)C)C(=O)O)c(C)c3c4c2cc(-c2ccnc(-c5ccc6c(cnn6C)c5)c2)n4CCN3S(C)(=O)=O)cc(F)c2c1CCCO2` [Compound I-014], in the data set with HIV (HTLV-IIIB strain), the response was half-maximal at 1.3 nM (EC50).

Consider `Cc1ccc(-c2c([C@H](OC(C)(C)C)C(=O)O)c(C)c3c4c2cc(C(=O)N2CCC(c5ccccc5)CC2)n4CCN3S(C)(=O)=O)cc1` [Compound I-024], for which, in the data set with HIV (HTLV-IIIB strain), the response was half-maximal at 4.2 nM (EC50).

In the data set with HIV (HTLV-IIIB strain), `CC(=O)N1CCn2c(-c3ccnc(-c4ccc5c(cnn5C)c4)c3)cc3c(C4=CCC(C)(C)CC4)c([C@H](OC(C)(C)C)C(=O)O)c(C)c1c32` [Compound I-026] gave a concentration giving a half-maximal response (EC50) of 3.7 nM.

In the data set with HIV (HTLV-IIIB strain), `Cc1c([C@H](OC(C)(C)C)C(=O)O)c(C2=CCC(C)(C)CC2)c2cc(-c3ccnc(-c4ccc5c(cnn5C)c4)c3)n3c2c1N(S(C)(=O)=O)CC3` [Compound I-015] returned a concentration giving a half-maximal response (EC50) of 4 nM.

In the data set with HIV (HTLV-IIIB strain), `Cc1ccc(-c2c(C(OC(C)(C)C)C(=O)O)c(C)c3c4c2cc(-c2ccnc(Cl)c2)n4CCN3S(C)(=O)=O)cc1` (stereo not shown) [Compound I-010] had a 50% effective concentration (EC50) of 16 nM.

With `Cc1ccc(-c2c([C@H](OC(C)(C)C)C(=O)O)c(C)c3c4c2cc(-c2ccnc(-c5ccc6c(cnn6C)c5)c2)n4CS(=O)(=O)N3)cc1` [Compound I-025], in the data set with HIV (HTLV-IIIB strain), the EC50 is 89 nM.

`Cc1ccc(-c2c([C@H](OC(C)(C)C)C(=O)O)c(C)c3c4c2cc(-c2ccnc(-c5ccc6c(cnn6C)c5)c2)n4CC(=O)N3)cc1` [Compound I-019] came in with a 50% effective concentration (EC50) in the data set with HIV (HTLV-IIIB strain) of 6 nM.

For `Cc1c(-c2c([C@H](OC(C)(C)C)C(=O)O)c(C)c3c4c2cc(-c2ccnc(-c5ccc6c(cnn6C)c5)c2)n4CCN3S(C)(=O)=O)ccc2c1NCCO2` [Compound I-022], the response in the data set with HIV (HTLV-IIIB strain) was half-maximal at 4 nM (EC50).

With `Cc1ccc(-c2c([C@H](OC(C)(C)C)C(=O)O)c(C)c3c4c2cc(-c2ccnc(-c5ccc6c(cnn6C)c5)c2)n4CC(C)N3S(C)(=O)=O)cc1` (stereo partly shown) [Compound I-023], in the data set with HIV (HTLV-IIIB strain), the EC50 was found to be 0.82 nM.

`Cc1ccc(-c2c([C@H](OC(C)(C)C)C(=O)O)c(C)c3c4c2cc(-c2ccnc(-c5ccc6c(cnn6C)c5)c2)n4CCN3C)cc1` [Compound I-030]: it took 1.9 nM to reach a half-maximal effect in the data set on HIV (HTLV-IIIB strain) (EC50). Besides, the bioavailability (usually dose-corrected exposure relative to a reference, in per cent) in the data set “BA Test” came out at 45.2%. Moreover, the “inhibition ratio (IKr tail peak current)” value in data set [1] stood at 11.7%.

Take `Cc1ccc(-c2c([C@H](OC(C)(C)C)C(=O)O)c(C)c3c4c2cc(-c2ccnc(N5CCN(C(C)C)CC5)c2)n4CCN3S(C)(=O)=O)cc1` [Compound I-017]: in the data set on HIV (HTLV-IIIB strain), the concentration for a half-maximal effect (EC50) was 9.1 nM. In addition, in “Solubility Test”, the solubility (usually the dissolved amount per volume that the medium holds) at 16 h was more than 50 µM.

On to `CC(=O)N1CCn2c(-c3ccnc(-c4ccc5c(cnn5C)c4)c3)cc3c(-c4ccc(Cl)cc4)c([C@H](OC(C)(C)C)C(=O)O)c(C)c1c32` [Compound I-028], for which the EC50 with HIV (HTLV-IIIB strain) was 3.3 nM.

Turning to `CC(=O)N1CCn2c(-c3ccnc(-c4ccc5c(cnn5C)c4)c3)cc3c(-c4cc(F)c5c(c4C)CCCO5)c([C@H](OC(C)(C)C)C(=O)O)c(C)c1c32` [Compound I-018], the EC50 with HIV (HTLV-IIIB strain) came out at 1.1 nM.

Compound `Cc1ccc(-c2c([C@H](OC(C)(C)C)C(=O)O)c(C)c3c4c2cc(C(N)=O)n4CCN3C)cc1` [Compound I-044] came in with a concentration giving a half-maximal response (EC50) in the data set with HIV (HTLV-IIIB strain) of 44 nM.

As to `Cc1ccc(-c2c([C@H](OC(C)(C)C)C(=O)O)c(C)c3c4c2cc(-c2ccnc(-c5ccc6c(cnn6C)c5)c2)n4CCN3C(=O)CN(C)C)cc1` [Compound I-021], in the data set on HIV (HTLV-IIIB strain), the 50% effective concentration (EC50) came out at 3.8 nM.

Take `Cc1ccc(-c2c(C(OC(C)(C)C)C(=O)O)c(C)c3c4c2cc(-c2ccnc(-c5ccc6c(cnn6C)c5)c2)n4CCN3S(C)(=O)=O)cc1` (stereo not shown) [Compound I-008]: in the data set on HIV (HTLV-IIIB strain), the concentration for a half-maximal effect (EC50) is 5.9 nM.

Compound `Cc1ccc(-c2c([C@H](OC(C)(C)C)C(=O)O)c(C)c3c4c2cc(-c2ccnc(-c5ccc6c(cnn6C)c5)c2)n4CC(=O)N3C)cc1` [Compound I-020] had a half-maximal effective concentration (EC50) with HIV (HTLV-IIIB strain) of 3.6 nM.

On to `Cc1ccc(-c2c([C@H](OC(C)(C)C)C(=O)O)c(C)c3c4c2cc(-c2ccnc(-c5ccc6c(cnn6C)c5)c2)n4CS(=O)(=O)N3C)cc1` [Compound I-029], for which the EC50 in the data set with HIV (HTLV-IIIB strain) amounted to 2.4 nM.

`Cc1c(-c2c(C(OC(C)(C)C)C(=O)O)c(C)c3c4c2c(C)cn4CCN3S(C)(=O)=O)ccc2c1CCCO2` (single isomer, unassigned) [Compound I-006]: the response in the data set on HIV (HTLV-IIIB strain) was half-maximal at 14 nM (EC50).

`Cc1ccc(-c2c([C@H](OC(C)(C)C)C(=O)O)c(C)c3c4c2cc(-c2ccnc(-c5ccc6c(cnn6C)c5)c2)n4CCN3S(C)(=O)=O)cc1` [Compound I-011] showed a concentration giving a half-maximal response (EC50) with HIV (HTLV-IIIB strain) of 2.3 nM.

`CC(=O)N1CCn2c(-c3ccnc(-c4ccc5c(cnn5C)c4)c3)cc3c(-c4ccc(C)cc4)c([C@H](OC(C)(C)C)C(=O)O)c(C)c1c32` [Compound I-013] gave an EC50 in the data set on HIV (HTLV-IIIB strain) of 3.4 nM.

`Cc1ccc(-c2c([C@H](OC(C)(C)C)C(=O)O)c(C)c3c4c2cc(-c2nnc(C)o2)n4CCN3C)cc1` [Compound I-041]: a half-maximal effect in the data set with HIV (HTLV-IIIB strain) (EC50) was put at 4.6 nM.

As for `Cc1ccc(-c2c([C@H](OC(C)(C)C)C(=O)O)c(C)c3c4c2cc(C(=O)N(C)C)n4CCN3C)cc1` [Compound I-040], the EC50 in the data set on HIV (HTLV-IIIB strain) was determined as 67 nM.

As for `CC(=O)N1CCn2c(-c3ccnc(-c4ccc5c(cnn5C)c4)c3)cc3c(-c4ccc(C)cc4)c(C(OC(C)(C)C)C(=O)O)c(C)c1c32` (stereo not shown) [Compound I-012], the concentration for a half-maximal effect (EC50) in the data set with HIV (HTLV-IIIB strain) was 3.7 nM.

`Cc1c([C@H](OC(C)(C)C)C(=O)O)c(-c2ccc(Cl)cc2)c2cc(-c3ccnc(-c4ccc5c(cnn5C)c4)c3)n3c2c1N(S(C)(=O)=O)CC3` [Compound I-016] had an EC50 in the data set on HIV (HTLV-IIIB strain) of 3.9 nM.

Regarding `Cc1ccc(-c2c([C@H](OC(C)(C)C)C(=O)O)c(C)c3c4c2cc(-c2nnc(-c5ccc6c(cnn6C)c5)o2)n4CCN3C)cc1` [Compound I-037], the midpoint of the response in the data set on HIV (HTLV-IIIB strain), the EC50, lay at 0.4 nM.

`Cc1ccc(-c2c([C@H](OC(C)(C)C)C(=O)O)c(C)c3c4c2cc(C(=O)NCc2ccccc2)n4CCN3S(C)(=O)=O)cc1` [Compound I-032] came in with an EC50 in the data set with HIV (HTLV-IIIB strain) of 5.2 nM.

`Cc1ccc(-c2c([C@H](OC(C)(C)C)C(=O)O)c(C)c3c4c2cc(C(=O)NCCC(C)(C)C)n4CCN3S(C)(=O)=O)cc1` [Compound I-031] showed an EC50 with HIV (HTLV-IIIB strain) of 2.9 nM.

In turn, `Cc1ccc(-c2c([C@H](OC(C)(C)C)C(=O)O)c(C)c3c4c2cc(C(=O)NCCC(C)(C)C)n4CCN3C)cc1` [Compound I-035] gave an EC50 in the data set with HIV (HTLV-IIIB strain) of 5.2 nM.

`Cc1ccc(-c2c(C(OC(C)(C)C)C(=O)O)c(C)c3c4c2cc(-c2ccnc(N5CCN(C(C)C)CC5)n2)n4CCN3S(C)(=O)=O)cc1` (stereo not shown) [Compound I-009] came in with an EC50 in the data set with HIV (HTLV-IIIB strain) of 32 nM.

(Values after US9975906B2, “Tricyclic heterocycle derivatives having HIV replication inhibitory effect” (Shionogi & Co., Ltd., priority 2014, dated 2018).)
